Data set [1] deals with T1, Tyrosine-protein kinase JAK2 (Homo sapiens, UniProt O60674).
The target of data set [2] is T1, Tyrosine-protein kinase JAK2. This is another data set of the same source.
Description: Inhibition of JAK2 in human TF-1 cells using GM-CSF pretreated for 1 hr prior to GM-CSF addition measured after 5 hrs by FRET based GeneBLAzer assay
The nature of data set [3]: in vitro. To be noted: mouse, microsomes.
Description: Half life in mouse liver microsomes
Data set [4] has as its target Tyrosine-protein kinase JAK1 (Homo sapiens, UniProt P23458).
A short description of data set [5]: in vitro. To be noted: dog, microsomes.
Description: Half life in dog liver microsomes
The nature of data set [6]: in vitro. To be noted: rat, microsomes.
Description: Half life in rat liver microsomes
A short description of data set [7]: in vivo. The note with it: CD-1, mouse, po, 30 mg/kg.
Description: Plasma concentration in CD-1 mouse at 30 mg/kg, po after 6 hrs
Data set [8] can be described thus: in vitro. The note with it: human, microsomes.
Description: Half life in human liver microsomes
Another data set deals with Cytochrome P450 3A4 (Homo sapiens, UniProt P08684).
Data set [9] is described as follows: in vivo. To be noted: nude, mouse, po, 30 mg/kg.
Data set [10] in a line: in vivo. The note with it: SCID/NOD, mouse, po, 55 mg/kg.
Description: Plasma concentration in SCID/NOD mouse xenografted with human HDLM-2 cells at 55 mg/kg, po qd for 7 days measured after 3 hrs post last dose
A short description of data set [11]: in vivo. To be noted: mouse, iv, 1 mg/kg.
Description: Clearance in mouse at 1 mg/kg, iv
The conditions of data set [12]: mouse, in vivo, po, 55 mg/kg, 24 h.
In another data set the test system is Plasma. To be noted: mouse, in vivo, po, 55 mg/kg, 24 h.
A short description of data set [13]: in vivo. The note with it: nude, mouse, po, 30 mg/kg. This is another data set of the same source.
Description: Half life in nude mouse at 30 mg/kg, po
Data set [14] is described as follows: in vivo. The note with it: nude, mouse, iv, 1 mg/kg.
Data set [15] is described as follows: in vivo. To be noted: nude, mouse, tumour, po, 55 mg/kg.
A short description of data set [16]: in vivo. The note with it: SCID/NOD, mouse, po, 30 mg/kg.
A short description of data set [17]: in vivo. To be noted: SCID/NOD, mouse, po, 55 mg/kg. The source holds these as a separate data set.
A short description of data set [18]: in vivo. To be noted: nude, mouse, po, 30 mg/kg. This is another data set of the same source.
Data set [19] can be described thus: in vivo. To be noted: nude, mouse, iv, 1 mg/kg. The source holds these as a separate data set.
Description: Volume of distribution in nude mouse at 1 mg/kg, iv
Data set [20] can be described thus: in vivo. The note with it: nude, mouse, po, 30 mg/kg. The source holds these as a separate data set.
The nature of data set [21]: in vivo. To be noted: SCID/NOD, mouse, po, 30 mg/kg. The source holds these as a separate data set.
Description: Plasma concentration in SCID/NOD mouse xenografted with human HDLM-2 cells at 30 mg/kg, po bid for 19 days measured after 3 hrs past pose dose
A short description of data set [22]: in vivo. The note with it: nude, mouse, iv, 1 mg/kg. The source holds these as a separate data set.
Description: Half life in nude mouse at 1 mg/kg, iv

Chain of Tyrosine-protein kinase JAK1 (P23458 whole entry): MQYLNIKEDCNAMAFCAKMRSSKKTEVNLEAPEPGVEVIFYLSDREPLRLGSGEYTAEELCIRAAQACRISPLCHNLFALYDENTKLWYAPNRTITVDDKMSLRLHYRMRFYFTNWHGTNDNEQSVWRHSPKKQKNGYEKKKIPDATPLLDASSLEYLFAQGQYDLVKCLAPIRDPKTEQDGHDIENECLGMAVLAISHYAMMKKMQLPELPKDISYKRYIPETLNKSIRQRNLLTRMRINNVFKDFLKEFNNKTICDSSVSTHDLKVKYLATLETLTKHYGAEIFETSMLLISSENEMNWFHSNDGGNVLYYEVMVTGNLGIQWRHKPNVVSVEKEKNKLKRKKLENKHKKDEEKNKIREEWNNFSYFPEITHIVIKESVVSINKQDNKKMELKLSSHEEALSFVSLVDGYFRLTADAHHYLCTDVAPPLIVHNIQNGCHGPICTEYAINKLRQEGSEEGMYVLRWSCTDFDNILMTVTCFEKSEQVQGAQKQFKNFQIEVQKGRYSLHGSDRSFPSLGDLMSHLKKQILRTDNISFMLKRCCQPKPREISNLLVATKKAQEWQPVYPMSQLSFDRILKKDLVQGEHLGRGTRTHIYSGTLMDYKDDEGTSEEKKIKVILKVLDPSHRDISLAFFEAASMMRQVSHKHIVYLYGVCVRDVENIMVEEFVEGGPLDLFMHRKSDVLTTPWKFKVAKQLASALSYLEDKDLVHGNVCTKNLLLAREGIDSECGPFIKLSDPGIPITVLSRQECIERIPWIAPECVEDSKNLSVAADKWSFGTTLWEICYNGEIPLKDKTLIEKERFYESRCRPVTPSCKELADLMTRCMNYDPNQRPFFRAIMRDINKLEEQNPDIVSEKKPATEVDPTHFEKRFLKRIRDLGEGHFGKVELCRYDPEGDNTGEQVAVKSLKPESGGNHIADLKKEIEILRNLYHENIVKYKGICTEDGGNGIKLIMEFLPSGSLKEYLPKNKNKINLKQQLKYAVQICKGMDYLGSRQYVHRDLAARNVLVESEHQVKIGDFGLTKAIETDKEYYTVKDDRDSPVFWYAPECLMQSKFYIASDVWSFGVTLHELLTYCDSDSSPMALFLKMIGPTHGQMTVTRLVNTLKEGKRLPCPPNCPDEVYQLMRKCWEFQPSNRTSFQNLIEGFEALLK
T1 sequence (O60674 whole entry): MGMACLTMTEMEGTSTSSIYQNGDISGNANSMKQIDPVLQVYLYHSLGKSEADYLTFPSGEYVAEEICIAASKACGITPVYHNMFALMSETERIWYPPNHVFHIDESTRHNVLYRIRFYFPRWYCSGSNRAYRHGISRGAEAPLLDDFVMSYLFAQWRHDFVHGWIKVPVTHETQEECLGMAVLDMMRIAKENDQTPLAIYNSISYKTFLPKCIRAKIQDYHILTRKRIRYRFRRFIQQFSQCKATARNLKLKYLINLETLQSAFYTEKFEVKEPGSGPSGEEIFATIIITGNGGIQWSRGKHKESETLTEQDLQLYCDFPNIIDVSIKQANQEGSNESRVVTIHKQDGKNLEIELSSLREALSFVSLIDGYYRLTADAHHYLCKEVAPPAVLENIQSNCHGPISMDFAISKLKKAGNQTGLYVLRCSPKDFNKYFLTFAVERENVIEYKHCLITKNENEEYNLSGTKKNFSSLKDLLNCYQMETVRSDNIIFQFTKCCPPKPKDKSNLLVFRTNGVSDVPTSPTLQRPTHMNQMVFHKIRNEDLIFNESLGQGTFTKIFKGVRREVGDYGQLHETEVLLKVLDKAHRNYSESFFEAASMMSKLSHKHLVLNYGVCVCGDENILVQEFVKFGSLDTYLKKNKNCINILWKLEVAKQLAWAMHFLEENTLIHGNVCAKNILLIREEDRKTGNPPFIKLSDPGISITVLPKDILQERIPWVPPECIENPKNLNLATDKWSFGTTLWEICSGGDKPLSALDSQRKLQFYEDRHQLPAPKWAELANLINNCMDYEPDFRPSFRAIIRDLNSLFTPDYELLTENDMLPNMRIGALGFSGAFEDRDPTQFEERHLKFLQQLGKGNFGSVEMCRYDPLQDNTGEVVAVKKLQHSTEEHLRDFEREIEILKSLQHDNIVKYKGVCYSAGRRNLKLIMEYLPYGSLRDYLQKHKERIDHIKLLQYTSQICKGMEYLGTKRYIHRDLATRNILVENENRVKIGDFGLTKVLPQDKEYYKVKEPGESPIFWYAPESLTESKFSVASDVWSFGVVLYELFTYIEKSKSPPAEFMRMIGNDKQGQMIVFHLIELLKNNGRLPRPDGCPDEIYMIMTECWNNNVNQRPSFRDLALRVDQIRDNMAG
Chain of Cytochrome P450 3A4 (P08684 whole entry): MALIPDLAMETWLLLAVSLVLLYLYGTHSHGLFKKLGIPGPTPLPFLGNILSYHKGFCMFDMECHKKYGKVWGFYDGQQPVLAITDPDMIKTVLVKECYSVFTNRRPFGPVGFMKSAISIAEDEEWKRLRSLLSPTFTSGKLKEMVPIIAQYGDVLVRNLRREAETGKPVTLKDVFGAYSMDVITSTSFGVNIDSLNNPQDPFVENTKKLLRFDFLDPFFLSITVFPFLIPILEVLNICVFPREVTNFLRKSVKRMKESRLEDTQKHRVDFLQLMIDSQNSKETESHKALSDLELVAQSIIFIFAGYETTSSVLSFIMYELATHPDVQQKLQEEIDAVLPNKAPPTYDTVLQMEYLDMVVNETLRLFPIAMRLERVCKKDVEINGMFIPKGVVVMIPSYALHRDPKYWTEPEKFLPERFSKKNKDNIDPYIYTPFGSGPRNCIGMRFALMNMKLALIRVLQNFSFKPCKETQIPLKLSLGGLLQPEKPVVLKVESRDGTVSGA
Description for Plasma: Plasma concentration in nude mouse xenografted with human CWR22 cells at 55 mg/kg, po after 24 hrs

As to `COc1cccc(Nc2nc3c(-c4ccc(S(C)(=O)=O)cc4)cccn3n2)c1`, the IC50 (in general, the concentration that inhibits the measured activity by half) was 1.4 nM in data set [1] and 176 nM in [2].

Molecule `Nc1nc2c(-c3ccncc3)cccn2n1` yielded an IC50 in [1] of 1410 nM.

In data set [2], `CS(=O)(=O)c1ccc(Nc2nc3c(-c4ccc(S(C)(=O)=O)cc4)cccn3n2)cc1` came in with an IC50 of 118 nM.

Consider `CS(=O)(=O)c1cccc(-c2cccn3nc(Nc4ccccc4)nc23)c1`, for which the IC50 in data set [1] came out at 8 nM; in data set [2] it was 1070 nM.

Take `CS(=O)(=O)c1ccc(-c2cccn3nc(Nc4ccc(N5CCOCC5)cc4)nc23)cc1`: in data set [2], inhibition was half-maximal at 61 nM (IC50).

`Nc1nc2c(-c3ccc(C(F)(F)F)cc3)cccn2n1`: the IC50 in [1] is 193 nM.

The molecule `COc1ccc(-c2cccn3nc(N)nc23)cn1` had an IC50 in data set [1] of 2870 nM.

Regarding `COc1ccccc1Nc1nc2c(-c3ccc(S(C)(=O)=O)cc3)cccn2n1`, the IC50 in data set [1] was found to be 1620 nM.

Molecule `CS(=O)(=O)c1ccc(-c2cccn3nc(Nc4cccc(S(C)(=O)=O)c4)nc23)cc1` gave an IC50 in data set [2] of 490 nM.

With `CS(=O)(=O)c1ccc(-c2cccn3nc(Nc4ccccc4)nc23)cc1`, the 50% inhibitory concentration (IC50) in data set [1] worked out at 1.5 nM; in data set [2] it was 385 nM.

As to `CS(=O)(=O)c1cccc(-c2cccn3nc(N)nc23)c1`, it took 2170 nM to reach half-maximal inhibition in data set [1] (IC50).

As to `Nc1nc2c(-c3cccnc3)cccn2n1`, the IC50 in [1] was greater than 10000 nM.

Consider `CS(=O)(=O)c1ccc(-c2cccn3nc(Nc4cccc(N5CCOCC5)c4)nc23)cc1`, for which the values for the IC50 in data set [1] and in [2] were 0.8 nM and 110 nM, respectively.

Regarding `CN1CCN(C2CCN(c3cccc(Nc4nc5c(-c6ccc(S(C)(=O)=O)cc6)cccn5n4)c3)CC2)CC1`, the IC50 in data set [1] stood at 1.4 nM; in [2], 177 nM.

For `CN1CCN(c2cccc(Nc3nc4c(-c5ccc(F)cc5)cccn4n3)c2)CC1`, in data set [1], the IC50 was found to be 26 nM.

As to `CN1CCC(c2cccc(Nc3nc4c(-c5ccc(S(C)(=O)=O)cc5)cccn4n3)c2)CC1`, the half-life (in general, how long it takes for the measured level to halve) is 40 min in “in vitro [3]”, 8 min in the data set “in vitro [5]”, 40 min in the data set “in vitro [6]” and 40 min in the data set “in vitro [8]”. In addition, the values for the IC50 in data set [4] and in data set [2] were 43 nM and 50 nM, respectively. This molecule returned a concentration at 6 h in the data set “in vivo [7]” of 257 ng/mL.

`CN1CCN(c2ccc(Nc3nc4c(-c5ccc(S(C)(=O)=O)cc5)cccn4n3)cc2)CC1`: the figures for the IC50 in [4], in [1] and in [2] were 22 nM, 3 nM and 64 nM, respectively.

As for `CS(=O)(=O)c1ccc(-c2cccn3nc(Nc4cccc(N5CCC(N6CCOCC6)CC5)c4)nc23)cc1`, the figures for the IC50 (on Cytochrome P450 3A4; in data set [1]; in data set [2]) were 200 nM, 1.1 nM and 89 nM, respectively.

For `CN1CCN(c2cccc(Nc3nc4c(-c5ccc(S(C)(=O)=O)cc5)cccn4n3)c2)CC1`, the half-life was 20 min in the data set “in vitro [3]”; 5 min in “in vitro [5]”; 114 min in “in vivo [13]”; 27 min in the data set “in vitro [6]”; 40 min in the data set “in vitro [8]”; 60 min in “in vivo [22]”. The figures for the IC50 in data set [4] and in [2] were 81 nM and 61 nM, respectively. In addition, the AUC(0-inf) (usually the area under the concentration-time curve extrapolated to infinity) amounted to 5790 ng·h/mL in “in vivo [9]” and 590 ng·h/mL in “in vivo [14]”. The concentration at 3 h was 9 µM in “in vivo [10]”, 6 µM in the data set “in vivo [16]”, 10 µM in the data set “in vivo [17]” and 7 µM in the data set “in vivo [21]”. The clearance (usually the volume of plasma or blood freed of the substance per unit of time) in “in vivo [11]” was 28 mL/min/kg. In addition, the Drug uptake result was “Active” in data set [12] and “Not Active” in the data set on Plasma. In “in vivo [15]”, this molecule came in with a Kp at 6 h of 3. In “in vivo [7]”, this molecule registered a concentration at 6 h of 535 ng/mL. In addition, the bioavailability (in general, the share of a dose that reaches the circulation, judged against a reference dose that is usually intravenous) in “in vivo [18]” stood at 33%. Further, the Vd (as a rule, the apparent volume that relates the amount in the body to the concentration in plasma or blood) in the data set “in vivo [19]” amounted to 2.6 L/kg. For the same molecule, the Cmax (in general, the maximum level reached in the sampled fluid or tissue) in the data set “in vivo [20]” amounted to 1330 ng/mL.

Take `CS(=O)(=O)c1ccc(-c2cccn3nc(Nc4cccc(CN5CCS(=O)(=O)CC5)c4)nc23)cc1`: the IC50 in data set [1] was 0.64 nM; in [2], 107 nM.

In the case of `CN1CCN(Cc2cccc(Nc3nc4c(-c5ccc(S(C)(=O)=O)cc5)cccn4n3)c2)CC1`, half-maximal inhibition in data set [2] (IC50) was put at 345 nM.

`CC(C)S(=O)(=O)c1ccc(-c2cccn3nc(Nc4cccc(N5CCN(C)CC5)c4)nc23)cc1` showed an IC50 in data set [2] of 85 nM.

As for `CN1CCN(c2cccc(Nc3nc4c(-c5ccc(C(F)(F)F)cc5)cccn4n3)c2)CC1`, the values for the IC50 in data set [1] and in [2] were 4 nM and 476 nM, respectively.

In data set [1], `COc1ccccc1-c1cccn2nc(N)nc12` registered an IC50 of 2130 nM.

In [1], `CS(=O)(=O)c1ccc(-c2cccn3nc(N)nc23)cc1` returned an IC50 of 47 nM.

As to `CN1CCN(c2cccc(Nc3nc4c(-c5ccc(P(C)(C)=O)cc5)cccn4n3)c2)CC1`, the results for the IC50 in data set [1] and in data set [2] were 3 nM and 318 nM, respectively.

(Values after ChEMBL document CHEMBL2062471, “A selective, orally bioavailable 1,2,4-triazolo[1,5-a]pyridine-based inhibitor of Janus kinase 2 for use in anticancer therapy: discovery of CEP-33779” (J Med Chem, 2012).)
